The NIST ThermoML archive (doi:10.1016/j.jct.2016.03.026)

Experiment: xn = mol fraction of the nth substance listed
Settings: 263.15 K, Fluid (supercritical or subcritical phases), Vibrating tube method, x1 = 0.97

O=C=O [carbon dioxide] + CO
Settings | mass density [kg/m3]
4475 kPa | 992.14
4500 kPa | 992.26
4525 kPa | 992.39
4550 kPa | 992.55
4575 kPa | 992.63
4600 kPa | 992.8
4625 kPa | 992.88
4650 kPa | 993.04
4675 kPa | 993.21
4700 kPa | 993.29
4725 kPa | 993.45
4750 kPa | 993.53
4775 kPa | 993.7
4800 kPa | 993.78
4825 kPa | 993.94
4850 kPa | 994.11
4875 kPa | 994.19
4900 kPa | 994.35
4925 kPa | 994.43
4950 kPa | 994.6
4975 kPa | 994.76
5000 kPa | 994.84
5025 kPa | 995.01
5050 kPa | 995.09
5075 kPa | 995.25
5100 kPa | 995.34
5125 kPa | 995.5
5150 kPa | 995.58
5175 kPa | 995.74
5200 kPa | 995.91
5225 kPa | 995.99
5250 kPa | 996.15
5275 kPa | 996.24
5300 kPa | 996.4
5325 kPa | 996.48
5350 kPa | 996.65
5375 kPa | 996.73
5400 kPa | 996.89
5425 kPa | 996.97
5450 kPa | 997.14
5475 kPa | 997.22
5500 kPa | 997.38
5525 kPa | 997.46
5550 kPa | 997.63
5575 kPa | 997.71
5600 kPa | 997.87
5625 kPa | 997.96
5650 kPa | 998.12
5675 kPa | 998.2
5700 kPa | 998.37
5725 kPa | 998.52
5750 kPa | 998.61
5775 kPa | 998.69
5800 kPa | 998.86
5825 kPa | 998.94
5850 kPa | 999.1
5875 kPa | 999.18
5900 kPa | 999.35
5925 kPa | 999.43
5950 kPa | 999.59
5975 kPa | 999.68
6000 kPa | 999.84
6025 kPa | 999.92
6050 kPa | 1000.09
6075 kPa | 1000.17
6100 kPa | 1000.33
6125 kPa | 1000.41
6150 kPa | 1000.58
6175 kPa | 1000.66
6200 kPa | 1000.79
6225 kPa | 1000.9
6250 kPa | 1000.98
6275 kPa | 1001.15
6300 kPa | 1001.23
6325 kPa | 1001.39
6350 kPa | 1001.48
6375 kPa | 1001.64
6400 kPa | 1001.72
6425 kPa | 1001.82
6450 kPa | 1001.97
6475 kPa | 1002.05
6500 kPa | 1002.21
6525 kPa | 1002.29
6550 kPa | 1002.46
6575 kPa | 1002.54
6600 kPa | 1002.7
6625 kPa | 1002.79
6650 kPa | 1002.95
6675 kPa | 1003.03
6700 kPa | 1003.2
6725 kPa | 1003.28
6750 kPa | 1003.36
6775 kPa | 1003.52
6800 kPa | 1003.6
6825 kPa | 1003.77
6850 kPa | 1003.85
6875 kPa | 1004.01
6900 kPa | 1004.09
6925 kPa | 1004.25
6950 kPa | 1004.34
6975 kPa | 1004.42
7000 kPa | 1004.59
7025 kPa | 1004.67
7050 kPa | 1004.82
7075 kPa | 1004.91
7100 kPa | 1004.99
7125 kPa | 1005.16
7150 kPa | 1005.24
7175 kPa | 1005.38
7200 kPa | 1005.49
7225 kPa | 1005.57
7250 kPa | 1005.73
7275 kPa | 1005.81
7300 kPa | 1005.9
7325 kPa | 1006.06
7350 kPa | 1006.14
7375 kPa | 1006.29
7400 kPa | 1006.39
7425 kPa | 1006.47
7450 kPa | 1006.63
7475 kPa | 1006.71
7500 kPa | 1006.79
